{"source": "ChEMBL document CHEMBL1201862", "about": "“PubChem BioAssay data set” (2004)", "key": {"[1]": {"target": "T1, RNA-binding protein pos-1 (Caenorhabditis elegans, UniProt G5EF15)", "T1 sequence (G5EF15 whole entry)": "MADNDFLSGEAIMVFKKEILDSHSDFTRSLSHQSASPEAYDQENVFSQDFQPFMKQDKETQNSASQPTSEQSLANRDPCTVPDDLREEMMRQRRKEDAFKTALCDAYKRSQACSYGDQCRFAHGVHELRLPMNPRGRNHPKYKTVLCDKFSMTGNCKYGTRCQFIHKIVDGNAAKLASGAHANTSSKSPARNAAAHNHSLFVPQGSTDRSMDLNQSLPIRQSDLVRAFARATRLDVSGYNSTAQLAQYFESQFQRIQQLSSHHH", "assay": "inhibitors of POS-1/mex-3 RNA binding, dose response, biochemical, fluorescence polarization (AID 1964);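 also: purified POS-1 fused to maltose binding protein made in E. coli; potency of compounds blocking POS-1 binding to fluorescent RNA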"}, "[2]": {"target": "T2, Zinc finger protein mex-5 (Caenorhabditis elegans, UniProt Q9XUB2)", "T2 sequence (Q9XUB2 whole entry)": "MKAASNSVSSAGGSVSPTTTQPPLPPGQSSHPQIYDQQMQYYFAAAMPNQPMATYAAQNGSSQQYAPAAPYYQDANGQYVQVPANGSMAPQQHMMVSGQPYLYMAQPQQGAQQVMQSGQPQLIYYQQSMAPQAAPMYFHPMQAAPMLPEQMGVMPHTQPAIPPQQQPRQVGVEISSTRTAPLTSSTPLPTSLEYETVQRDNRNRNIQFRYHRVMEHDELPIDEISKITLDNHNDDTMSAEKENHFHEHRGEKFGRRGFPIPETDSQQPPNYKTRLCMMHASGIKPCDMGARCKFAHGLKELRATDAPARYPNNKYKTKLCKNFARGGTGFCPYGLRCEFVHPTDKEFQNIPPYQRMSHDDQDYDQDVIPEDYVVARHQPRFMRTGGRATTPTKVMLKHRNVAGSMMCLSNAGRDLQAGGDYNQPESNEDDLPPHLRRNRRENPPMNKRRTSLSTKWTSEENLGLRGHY", "assay": "MEX-5/TCR-2 RNA interaction inhibitors, dose response, biochemical, C. elegans, fluorescence polarization (AID 1960)"}, "DNA topoisomerase": {"target": "DNA topoisomerase (Yersinia pestis, UniProt A0A2S9PM60)", "sequence (A0A2S9PM60 whole entry)": "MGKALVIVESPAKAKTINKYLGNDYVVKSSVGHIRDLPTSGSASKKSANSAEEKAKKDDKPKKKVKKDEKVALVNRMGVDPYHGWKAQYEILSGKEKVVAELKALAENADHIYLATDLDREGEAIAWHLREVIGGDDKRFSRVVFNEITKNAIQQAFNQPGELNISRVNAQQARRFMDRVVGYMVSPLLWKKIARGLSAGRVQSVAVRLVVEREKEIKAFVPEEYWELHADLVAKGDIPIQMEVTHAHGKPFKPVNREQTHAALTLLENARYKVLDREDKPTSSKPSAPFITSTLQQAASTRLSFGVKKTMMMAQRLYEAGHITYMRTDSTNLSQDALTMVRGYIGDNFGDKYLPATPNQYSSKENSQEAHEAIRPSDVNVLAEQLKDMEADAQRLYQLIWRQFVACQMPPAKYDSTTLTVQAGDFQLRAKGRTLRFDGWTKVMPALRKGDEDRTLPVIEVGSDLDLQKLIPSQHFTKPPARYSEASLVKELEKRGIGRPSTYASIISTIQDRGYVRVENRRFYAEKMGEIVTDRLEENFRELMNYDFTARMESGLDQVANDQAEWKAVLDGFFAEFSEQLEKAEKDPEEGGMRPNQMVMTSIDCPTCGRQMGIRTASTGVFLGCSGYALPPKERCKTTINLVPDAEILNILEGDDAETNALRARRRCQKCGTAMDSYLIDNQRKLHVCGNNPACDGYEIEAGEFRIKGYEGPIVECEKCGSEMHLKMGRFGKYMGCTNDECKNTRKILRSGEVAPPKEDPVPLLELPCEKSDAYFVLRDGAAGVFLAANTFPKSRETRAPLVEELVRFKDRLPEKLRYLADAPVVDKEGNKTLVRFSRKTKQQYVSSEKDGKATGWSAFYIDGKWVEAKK", "assay": "Y. pestis Topo-I inhibitors, cleavage product readout, dose response, biochemical, cherry-pick (AID 588525)"}, "Genome polyprotein": {"target": "Genome polyprotein (dengue virus type 2, UniProt P29990)", "assay": "Dengue-2 NS5 methyltransferase inhibitors, primary screen, biochemical, confirmation dose response (AID 588689)", "assay_type": "functional"}, "Cysteine protease ATG4B": {"target": "Cysteine protease ATG4B (Homo sapiens, UniProt Q9Y4P1)", "sequence (Q9Y4P1 whole entry)": "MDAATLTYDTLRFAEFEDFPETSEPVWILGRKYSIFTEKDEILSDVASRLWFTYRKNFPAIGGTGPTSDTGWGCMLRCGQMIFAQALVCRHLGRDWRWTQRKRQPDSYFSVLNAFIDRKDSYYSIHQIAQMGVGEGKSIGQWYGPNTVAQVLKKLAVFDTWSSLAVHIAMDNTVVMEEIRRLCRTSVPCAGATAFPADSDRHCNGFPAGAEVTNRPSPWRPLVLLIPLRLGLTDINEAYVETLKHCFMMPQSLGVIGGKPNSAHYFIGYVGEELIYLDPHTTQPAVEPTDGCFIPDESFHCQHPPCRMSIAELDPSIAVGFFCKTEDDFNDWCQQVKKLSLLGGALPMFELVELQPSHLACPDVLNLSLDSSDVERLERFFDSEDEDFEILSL", "assay_type": "functional"}, "Phospholipase A2": {"target": "Phospholipase A2 (Homo sapiens, UniProt P04054)", "sequence (P04054 whole entry)": "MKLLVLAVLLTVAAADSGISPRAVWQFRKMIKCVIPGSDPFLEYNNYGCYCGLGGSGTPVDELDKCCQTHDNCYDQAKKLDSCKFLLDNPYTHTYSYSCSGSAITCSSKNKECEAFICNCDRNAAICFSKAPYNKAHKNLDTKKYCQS", "assay_type": "functional"}, "[3]": {"assay": "NIH-3T3 fibroblast cytotoxicity, dose response, cytotoxicity control, cell-based, fluorescence, Alamar Blue, secondary assay (AID 2327);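 also: NIH-3T3 mouse fibroblasts cultured with fluconazole at 8 µg/mL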", "assay_type": "functional"}, "[4]": {"assay": "insulin promoter down-regulators in MIN6 cells, imaging, high-content screening, mouse beta cells (AID 1628)", "assay_type": "functional"}, "cells [5]": {"assay": "cells", "assay_type": "functional, cell-based"}, "[6]": {"assay": "cytotoxicity in MIN6 insulinoma cells, dose response, cytotoxicity control, cell-based, mouse insulinoma (AID 2122);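 also: confirmatory high-throughput counterscreen run to flag cytotoxic compounds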", "assay_type": "functional"}, "[7]": {"assay": "C. albicans growth with fluconazole, confirmation, fluorescence, retest (AID 2467)", "assay_type": "functional, cell-based"}, "[8]": {"assay": "inhibitors of intracellular T. cruzi replication, confirmation, NIH3T3 host cells, beta-gal luminescence (AID 2044);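 also: luminescent beta-galactosidase reporter signal from transgenic T. cruzi replicating inside host cells; inhibitors lower the luminescence signal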", "assay_type": "functional, cell-based"}, "cells [9]": {"assay": "cells", "assay_type": "functional, cell-based", "remark": "listed apart in the source"}, "[10]": {"target": "Serine/threonine-protein phosphatase (Candida dubliniensis (strain CD36 / CBS 7987 / NCPF 3949 / NRRLY-17841) (Yeast), UniProt B9W6M3)", "assay": "calcineurin pathway inhibitors in yeast reporter, dose response, S. cerevisiae, CDRE-lacZ, luminescence, secondary (AID 2388);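 also: yeast reporter cells carrying a calcineurin-responsive lacZ construct stimulated with calcium chloride; luminescent beta-galactosidase reporter signal in whole cells rather than isolated phosphatase activity; potency for inhibition where a drop in reporter signal means calcineurin blockade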", "assay_type": "functional, cell-based"}, "[11]": {"assay": "cytotoxicity toward NIH3T3 fibroblasts, dose response, counter-screen, cell-based, ATP luminescence, mouse fibroblasts (AID 2010);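 also: cells exposed to compound for about 90 hours before reading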", "assay_type": "functional"}, "Exodeoxyribonuclease V": {"target": "Exodeoxyribonuclease V (Escherichia coli (strain K12), UniProt P04993+P07648+P08394)", "sequence (P04993 whole entry)": "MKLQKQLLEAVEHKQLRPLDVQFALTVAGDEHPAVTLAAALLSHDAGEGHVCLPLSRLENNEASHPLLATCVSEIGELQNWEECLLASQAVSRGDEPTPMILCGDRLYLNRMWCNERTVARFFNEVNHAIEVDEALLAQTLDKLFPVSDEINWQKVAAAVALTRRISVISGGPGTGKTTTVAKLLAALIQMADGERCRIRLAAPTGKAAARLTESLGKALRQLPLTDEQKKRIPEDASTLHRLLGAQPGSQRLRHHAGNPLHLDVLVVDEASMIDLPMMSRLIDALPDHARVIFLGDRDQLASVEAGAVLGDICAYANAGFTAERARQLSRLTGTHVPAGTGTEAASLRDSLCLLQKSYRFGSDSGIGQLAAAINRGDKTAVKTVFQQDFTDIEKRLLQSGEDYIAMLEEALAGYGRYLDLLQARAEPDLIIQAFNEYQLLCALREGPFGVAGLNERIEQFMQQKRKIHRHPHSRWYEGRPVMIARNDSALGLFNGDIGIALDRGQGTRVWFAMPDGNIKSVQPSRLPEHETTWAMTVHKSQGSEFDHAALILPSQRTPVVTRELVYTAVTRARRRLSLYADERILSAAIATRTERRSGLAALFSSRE", "sequence (P07648 whole entry)": "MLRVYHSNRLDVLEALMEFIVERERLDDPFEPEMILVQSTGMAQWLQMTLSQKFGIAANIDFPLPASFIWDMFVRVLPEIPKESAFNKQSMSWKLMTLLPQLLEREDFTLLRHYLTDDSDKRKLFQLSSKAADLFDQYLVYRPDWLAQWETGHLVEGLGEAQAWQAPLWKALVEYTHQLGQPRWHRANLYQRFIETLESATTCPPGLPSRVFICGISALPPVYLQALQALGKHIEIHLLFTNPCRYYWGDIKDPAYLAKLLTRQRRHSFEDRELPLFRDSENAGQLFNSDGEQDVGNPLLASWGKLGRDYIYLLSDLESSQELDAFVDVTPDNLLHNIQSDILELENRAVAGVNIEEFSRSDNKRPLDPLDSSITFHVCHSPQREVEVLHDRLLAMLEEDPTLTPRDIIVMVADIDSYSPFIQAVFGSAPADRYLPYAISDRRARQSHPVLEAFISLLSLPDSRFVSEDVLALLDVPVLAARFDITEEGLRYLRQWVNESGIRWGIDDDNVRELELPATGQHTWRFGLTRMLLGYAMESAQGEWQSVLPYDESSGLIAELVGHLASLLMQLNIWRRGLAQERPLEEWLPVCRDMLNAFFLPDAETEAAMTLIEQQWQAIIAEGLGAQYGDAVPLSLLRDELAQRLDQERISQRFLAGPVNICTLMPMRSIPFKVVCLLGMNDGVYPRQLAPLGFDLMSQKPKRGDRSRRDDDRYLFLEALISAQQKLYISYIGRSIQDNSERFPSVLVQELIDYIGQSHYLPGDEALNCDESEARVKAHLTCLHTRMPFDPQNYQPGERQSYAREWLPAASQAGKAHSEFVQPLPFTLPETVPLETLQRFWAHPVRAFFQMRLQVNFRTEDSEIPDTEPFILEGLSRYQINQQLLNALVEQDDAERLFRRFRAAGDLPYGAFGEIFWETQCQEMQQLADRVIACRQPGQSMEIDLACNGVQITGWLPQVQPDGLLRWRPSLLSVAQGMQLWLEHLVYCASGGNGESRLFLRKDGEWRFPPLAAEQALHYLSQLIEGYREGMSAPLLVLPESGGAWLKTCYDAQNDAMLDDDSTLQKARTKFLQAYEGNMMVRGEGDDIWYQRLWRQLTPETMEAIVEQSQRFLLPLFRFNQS", "sequence (P08394 whole entry)": "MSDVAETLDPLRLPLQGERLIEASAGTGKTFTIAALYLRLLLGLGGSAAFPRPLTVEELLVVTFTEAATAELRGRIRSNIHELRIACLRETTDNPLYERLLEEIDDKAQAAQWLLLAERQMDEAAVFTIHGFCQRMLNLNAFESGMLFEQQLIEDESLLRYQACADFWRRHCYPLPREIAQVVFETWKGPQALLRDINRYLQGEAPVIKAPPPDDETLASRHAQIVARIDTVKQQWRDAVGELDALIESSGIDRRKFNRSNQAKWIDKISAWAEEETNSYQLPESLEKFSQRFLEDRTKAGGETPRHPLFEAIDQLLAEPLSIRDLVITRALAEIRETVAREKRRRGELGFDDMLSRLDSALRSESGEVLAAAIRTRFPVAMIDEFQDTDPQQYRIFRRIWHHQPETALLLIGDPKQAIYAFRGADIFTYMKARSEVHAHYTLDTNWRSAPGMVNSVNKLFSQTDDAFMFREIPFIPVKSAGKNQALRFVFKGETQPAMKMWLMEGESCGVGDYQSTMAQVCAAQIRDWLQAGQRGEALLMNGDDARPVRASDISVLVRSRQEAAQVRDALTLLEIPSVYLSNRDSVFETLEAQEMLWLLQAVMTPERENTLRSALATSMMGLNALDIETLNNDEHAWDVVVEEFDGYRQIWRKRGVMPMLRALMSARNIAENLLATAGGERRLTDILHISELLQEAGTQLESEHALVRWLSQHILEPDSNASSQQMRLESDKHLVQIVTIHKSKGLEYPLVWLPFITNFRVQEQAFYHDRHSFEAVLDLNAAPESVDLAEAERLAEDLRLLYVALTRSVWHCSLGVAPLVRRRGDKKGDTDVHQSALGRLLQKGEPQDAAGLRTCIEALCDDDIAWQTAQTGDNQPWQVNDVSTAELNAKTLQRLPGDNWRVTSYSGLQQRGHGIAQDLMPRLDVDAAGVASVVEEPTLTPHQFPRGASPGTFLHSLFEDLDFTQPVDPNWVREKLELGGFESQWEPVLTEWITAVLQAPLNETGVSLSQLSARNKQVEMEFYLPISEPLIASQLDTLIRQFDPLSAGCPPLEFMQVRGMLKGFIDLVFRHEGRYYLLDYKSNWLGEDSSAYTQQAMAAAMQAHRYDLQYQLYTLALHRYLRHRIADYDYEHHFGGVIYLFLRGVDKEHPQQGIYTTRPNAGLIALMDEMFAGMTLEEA", "assay": "E. coli RecBCD inhibitors, dose response, counter-screen for AddAB inhibitor project, absorbance, V66 E. coli, mutant T4 phage (AID 492957)", "assay_type": "functional, cell-based, Escherichia coli str. K-12 substr. MG1655"}, "[12]": {"assay": "cytotoxicity in HEK-293T cells, dose response, cytotoxicity control for TCR NF-kB inhibitor project, luminescence, T-cell screen hits (AID 489026);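 also: cells exposed to compound about 14 hours before the viability readout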", "assay_type": "functional, cell-based"}, "[13]": {"assay": "Counterscreen for AddAB inhibitors: absorbance-based bacterial cell-based high throughput dose response assay for inhibitors of bacterial viability. [Related pubchem assays (depositor defined):AID435030, AID449728, AID449731, AID488942, AID488955, AID488956]", "assay_type": "functional"}, "[14]": {"target": "Heat shock protein HSP 90-alpha (Homo sapiens, UniProt P07900)", "assay_type": "functional, organism-based"}, "Jurkat [15]": {"test_system": "Jurkat", "assay": "SAR Analysis of small molecule inhibitors of T-cell specific antigen receptor-induced NF-kB activation in a Jurkat cell line using a luminescence assay - Set 2. [Related pubchem assays (depositor defined):AID435003, AID435012, AID465]", "assay_type": "functional, cell-based", "conditions": "Homo sapiens"}, "Jurkat [16]": {"test_system": "Jurkat", "assay": "SAR Analysis of small molecule inhibitors of T-cell specific antigen receptor-induced NF-kB activation in a Jurkat cell line using a luminescence assay. [Related pubchem assays (depositor defined):AID435003, AID435012, AID465]", "assay_type": "functional, cell-based", "conditions": "Homo sapiens"}, "HEK293 [17]": {"test_system": "HEK293", "assay": "SAR Analysis of small molecule inhibitors of T-cell specific antigen receptor-induced NF-kB activation in a HEK-293T cell line using a luminescence assay - Set 2. [Related pubchem assays (depositor defined):AID435003, AID435012, AID489026]", "assay_type": "functional, cell-based", "conditions": "Homo sapiens"}, "INS1": {"test_system": "INS1", "assay": "beta cell apoptosis inhibitors, cytokine rescue, dose response, luminescence, retest (AID 449756);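 also: cell death triggered by IL-1 beta plus TNF-alpha plus IFN-gamma mixture; protective hits raise ATP signal compared with cytokine alone wells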", "assay_type": "functional, cell-based", "conditions": "Rattus norvegicus"}, "HEK293 [18]": {"test_system": "HEK293", "assay": "SAR Analysis of small molecule inhibitors of T-cell specific antigen receptor-induced NF-kB activation in a HEK-293T cell line using a luminescence assay. [Related pubchem assays (depositor defined):AID435003, AID435012, AID489026]", "assay_type": "functional, cell-based", "conditions": "Homo sapiens"}, "[19]": {"target": "ATP-dependent molecular chaperone HSP82 (Candida albicans (strain WO-1) (Yeast), UniProt C4YTQ8)", "sequence (C4YTQ8 whole entry)": "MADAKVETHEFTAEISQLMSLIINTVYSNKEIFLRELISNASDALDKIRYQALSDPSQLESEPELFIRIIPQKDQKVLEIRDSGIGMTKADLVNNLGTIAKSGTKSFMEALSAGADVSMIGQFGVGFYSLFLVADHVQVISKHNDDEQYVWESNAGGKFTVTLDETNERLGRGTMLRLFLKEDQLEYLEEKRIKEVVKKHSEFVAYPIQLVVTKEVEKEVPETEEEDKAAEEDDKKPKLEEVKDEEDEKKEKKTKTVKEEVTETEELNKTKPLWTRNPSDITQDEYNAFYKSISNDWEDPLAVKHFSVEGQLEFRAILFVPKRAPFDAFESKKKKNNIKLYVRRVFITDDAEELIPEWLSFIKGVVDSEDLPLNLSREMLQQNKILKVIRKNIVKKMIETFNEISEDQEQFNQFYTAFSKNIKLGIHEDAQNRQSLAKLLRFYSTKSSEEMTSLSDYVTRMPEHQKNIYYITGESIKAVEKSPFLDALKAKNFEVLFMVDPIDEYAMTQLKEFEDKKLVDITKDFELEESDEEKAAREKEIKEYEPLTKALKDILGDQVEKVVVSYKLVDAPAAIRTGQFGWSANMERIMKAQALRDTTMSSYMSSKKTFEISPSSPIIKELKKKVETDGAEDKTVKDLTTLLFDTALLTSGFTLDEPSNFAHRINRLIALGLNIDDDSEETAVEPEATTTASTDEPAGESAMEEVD", "assay": "loss of DOC-induced GRE-beta-galactosidase reporter signal, dose response, Hsp90 inhibitor project, S. cerevisiae, luminescence (AID 2400);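 also: beta-galactosidase luminescence from glucocorticoid response element reporter as proxy for Hsp90 function; inhibitor potency where signal loss means Hsp90 inhibition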", "assay_type": "functional, cell-based"}, "[20]": {"assay": "Shn3 3'UTR reporter inhibitors, dose response, cell-based, Clone20 osteoblasts, firefly luciferase, cherry-picked (AID 624132)", "assay_type": "functional"}, "[21]": {"assay": "HepG2 cell cytotoxicity, dose response, cytotoxicity control for Shn3 inhibitor project, CellTiter-Glo, cherry-picked (AID 624134)", "assay_type": "functional, cell-based"}, "[22]": {"assay": "control 3'UTR Renilla luciferase suppression, dose response, counter-screen for Shn3 inhibitor project, cell-based, Clone20-Shn3RL, cherry-picked (AID 624133)", "assay_type": "functional"}}, "note": "The source made the active and inactive calls.", "data": [{"smiles": "C=CCOc1cccc(C2C(C(=O)c3cc4ccccc4o3)=C(O)C(=O)N2c2cc(C)on2)c1", "note": "(stereo not drawn)", "values": [{"measurement": "EC50", "setting": "[1]", "result": "> 300 µM (not active)"}, {"measurement": "EC50", "setting": "[2]", "result": "80.5 µM (active)"}, {"measurement": "AC50", "setting": "DNA topoisomerase", "result": "7.35 µM (active)"}, {"measurement": "IC50", "setting": "Genome polyprotein", "result": "48.6 µM (active)"}]}, {"smiles": "CCCCCCCCCCCCCCCCCCNc1ccn(C2OC(COP(=O)(O)OCC3OC(n4cc(F)c(=O)[nH]c4=O)CC3O)C(O)C2O)c(=O)n1", "note": "(stereo not drawn)", "values": [{"measurement": "IC50", "setting": "Cysteine protease ATG4B", "result": "10.8 µM (active)"}, {"measurement": "IC50", "setting": "Phospholipase A2", "result": "9.09 µM (active)"}]}, {"smiles": "CCCC(=O)NC(c1ccc(OC)cc1)c1ccc2cccnc2c1O", "note": "(stereo not drawn)", "values": [{"measurement": "EC50", "setting": "[3]", "result": "41.4 µM (active)"}, {"measurement": "IC50", "setting": "[4]", "result": "1.23 µM (active)"}, {"measurement": "EC50", "setting": "cells [5]", "result": "6.31 µM (active)"}, {"measurement": "IC50", "setting": "[6]", "result": "1.52 µM (active)"}, {"measurement": "EC50", "setting": "[7]", "result": "0.349 µM (active)"}, {"measurement": "EC50", "setting": "[8]", "result": "0.527 µM (active)"}, {"measurement": "EC50", "setting": "cells [9]", "result": "> 350 µM (not active)"}, {"measurement": "EC50", "setting": "[10]", "result": "> 180 µM (inactive)"}, {"measurement": "EC50", "setting": "[11]", "result": "1.4 µM (active)"}, {"measurement": "IC50", "setting": "Exodeoxyribonuclease V", "result": "> 119 µM (inactive)"}, {"measurement": "IC50", "setting": "[12]", "result": "> 80 µM (inactive)"}, {"measurement": "IC50", "setting": "[13]", "result": "> 119 µM (inactive)"}, {"measurement": "AC50", "setting": "[14]", "result": "4.08 µM (active)"}, {"measurement": "IC50", "setting": "Jurkat [15]", "result": "3.11 µM (active)"}, {"measurement": "IC50", "setting": "Jurkat [16]", "result": "2.96 µM (active)"}, {"measurement": "IC50", "setting": "HEK293 [17]", "result": "3.64 µM (active)"}, {"measurement": "AC50", "setting": "INS1", "result": "0.696 µM (active)"}, {"measurement": "IC50", "setting": "HEK293 [18]", "result": "4.92 µM (active)"}, {"measurement": "EC50", "setting": "[19]", "result": "> 160 µM (inactive)"}, {"measurement": "AC50", "setting": "[20]", "result": "1.18 µM (active)"}, {"measurement": "AC50", "setting": "[21]", "result": "2.33 µM (active)"}, {"measurement": "AC50", "setting": "[22]", "result": "1.08 µM (active)"}]}]}
